Measurements published in patent US20140348819A1, “Methods of Treating Cancer” (Dana-Farber Cancer Institute, Inc., priority 2011, published 2014).

Tested on: six V600E BRAF melanoma cell lines
Experiment: Screening of recombinant RTK ligands for ability to confer resistance to BRAFi (PLX4720) or MEKi (PD184352) (Table 4)
Format: cell-based, human
Design: ability of recombinant RTK ligand to confer resistance / ability of recombinant RTK ligand to confer resistance (screening value): scale not given here
Description: HGF is the only one that can substantially confer drug resistance to the cell lines.
The complexity of the tumor microenvironment is much greater than an in vitro co-culture system. Therefore, the inventors explored whether the activation of other RTKs could result in a similar resistance as that observed with the activation of MET. To this end, six V600E BRAF melanoma cell lines were tested for their resistance to either BRAFi (PLX4720) or MEKi (PD184352) after the addition of 22 RTK ligands that have the potential of activating almost all known RTKs. […] The activation of a selected subset of these RTKs was confirmed by western blotting and by high throughput tyrosine kinase phosphorylation profiling.

Collagen II
ability of recombinant RTK ligand to confer resistance (A2058, PD184352 - 1 uM, ligand 6.25 ng/ml): 0.97
ability of recombinant RTK ligand to confer resistance (A2058, PD184352 - 1 uM, ligand 25 ng/ml): 0.97
ability of recombinant RTK ligand to confer resistance (A2058, PD184352 - 1 uM, ligand 100 ng/ml): 0.99
ability of recombinant RTK ligand to confer resistance (A2058, PD184352 - 1 uM, ligand 400 ng/ml): 1.00
ability of recombinant RTK ligand to confer resistance (A2058, PD184352 - 1 uM, ligand 1600 ng/ml): 0.92
ability of recombinant RTK ligand to confer resistance (A2058, PLX4720 - 2 uM, ligand 6.25 ng/ml): 0.95
ability of recombinant RTK ligand to confer resistance (A2058, PLX4720 - 2 uM, ligand 25 ng/ml): 0.99
ability of recombinant RTK ligand to confer resistance (A2058, PLX4720 - 2 uM, ligand 100 ng/ml): 0.96
ability of recombinant RTK ligand to confer resistance (A2058, PLX4720 - 2 uM, ligand 400 ng/ml): 0.95
ability of recombinant RTK ligand to confer resistance (A2058, PLX4720 - 2 uM, ligand 1600 ng/ml): 0.96
ability of recombinant RTK ligand to confer resistance (C32, PD184352 - 1 uM, ligand 6.25 ng/ml): 0.99
ability of recombinant RTK ligand to confer resistance (C32, PD184352 - 1 uM, ligand 25 ng/ml): 1.03
ability of recombinant RTK ligand to confer resistance (C32, PD184352 - 1 uM, ligand 100 ng/ml): 1.06
ability of recombinant RTK ligand to confer resistance (C32, PD184352 - 1 uM, ligand 400 ng/ml): 1.18
ability of recombinant RTK ligand to confer resistance (C32, PD184352 - 1 uM, ligand 1600 ng/ml): 1.14
ability of recombinant RTK ligand to confer resistance (C32, PLX4720 - 2 uM, ligand 6.25 ng/ml): 1.03
ability of recombinant RTK ligand to confer resistance (C32, PLX4720 - 2 uM, ligand 25 ng/ml): 0.99
ability of recombinant RTK ligand to confer resistance (C32, PLX4720 - 2 uM, ligand 100 ng/ml): 0.99
ability of recombinant RTK ligand to confer resistance (C32, PLX4720 - 2 uM, ligand 400 ng/ml): 1.00
ability of recombinant RTK ligand to confer resistance (C32, PLX4720 - 2 uM, ligand 1600 ng/ml): 1.02
ability of recombinant RTK ligand to confer resistance (Colo 829, PD184352 - 1 uM, ligand 6.25 ng/ml): 0.95
ability of recombinant RTK ligand to confer resistance (Colo 829, PD184352 - 1 uM, ligand 25 ng/ml): 1.02
ability of recombinant RTK ligand to confer resistance (Colo 829, PD184352 - 1 uM, ligand 100 ng/ml): 1.04
ability of recombinant RTK ligand to confer resistance (Colo 829, PD184352 - 1 uM, ligand 400 ng/ml): 1.02
ability of recombinant RTK ligand to confer resistance (Colo 829, PD184352 - 1 uM, ligand 1600 ng/ml): 0.99
ability of recombinant RTK ligand to confer resistance (Colo 829, PLX4720 - 2 uM, ligand 6.25 ng/ml): 1.00
ability of recombinant RTK ligand to confer resistance (Colo 829, PLX4720 - 2 uM, ligand 25 ng/ml): 1.13
ability of recombinant RTK ligand to confer resistance (Colo 829, PLX4720 - 2 uM, ligand 100 ng/ml): 1.06
ability of recombinant RTK ligand to confer resistance (Colo 829, PLX4720 - 2 uM, ligand 400 ng/ml): 1.02
ability of recombinant RTK ligand to confer resistance (Colo 829, PLX4720 - 2 uM, ligand 1600 ng/ml): 0.98
ability of recombinant RTK ligand to confer resistance (G-361, PD184352 - 1 uM, ligand 6.25 ng/ml): 0.96
ability of recombinant RTK ligand to confer resistance (G-361, PD184352 - 1 uM, ligand 25 ng/ml): 1.00
ability of recombinant RTK ligand to confer resistance (G-361, PD184352 - 1 uM, ligand 100 ng/ml): 0.96
ability of recombinant RTK ligand to confer resistance (G-361, PD184352 - 1 uM, ligand 400 ng/ml): 1.01
ability of recombinant RTK ligand to confer resistance (G-361, PD184352 - 1 uM, ligand 1600 ng/ml): 1.03
ability of recombinant RTK ligand to confer resistance (G-361, PLX4720 - 2 uM, ligand 6.25 ng/ml): 0.97
ability of recombinant RTK ligand to confer resistance (G-361, PLX4720 - 2 uM, ligand 25 ng/ml): 0.91
ability of recombinant RTK ligand to confer resistance (G-361, PLX4720 - 2 uM, ligand 100 ng/ml): 0.92
ability of recombinant RTK ligand to confer resistance (G-361, PLX4720 - 2 uM, ligand 400 ng/ml): 0.96
ability of recombinant RTK ligand to confer resistance (G-361, PLX4720 - 2 uM, ligand 1600 ng/ml): 0.92
ability of recombinant RTK ligand to confer resistance (SK-MEL-5, PD184352 - 1 uM, ligand 6.25 ng/ml): 0.96
ability of recombinant RTK ligand to confer resistance (SK-MEL-5, PD184352 - 1 uM, ligand 25 ng/ml): 0.92
ability of recombinant RTK ligand to confer resistance (SK-MEL-5, PD184352 - 1 uM, ligand 100 ng/ml): 0.94
ability of recombinant RTK ligand to confer resistance (SK-MEL-5, PD184352 - 1 uM, ligand 400 ng/ml): 0.99
ability of recombinant RTK ligand to confer resistance (SK-MEL-5, PD184352 - 1 uM, ligand 1600 ng/ml): 0.94
ability of recombinant RTK ligand to confer resistance (SK-MEL-5, PLX4720 - 2 uM, ligand 6.25 ng/ml): 1.03
ability of recombinant RTK ligand to confer resistance (SK-MEL-5, PLX4720 - 2 uM, ligand 25 ng/ml): 1.10
ability of recombinant RTK ligand to confer resistance (SK-MEL-5, PLX4720 - 2 uM, ligand 100 ng/ml): 1.06
ability of recombinant RTK ligand to confer resistance (SK-MEL-5, PLX4720 - 2 uM, ligand 400 ng/ml): 1.00
ability of recombinant RTK ligand to confer resistance (SK-MEL-5, PLX4720 - 2 uM, ligand 1600 ng/ml): 1.08
ability of recombinant RTK ligand to confer resistance (SK-MEL-28, PD184352 - 1 uM, ligand 6.25 ng/ml): 0.98
ability of recombinant RTK ligand to confer resistance (SK-MEL-28, PD184352 - 1 uM, ligand 25 ng/ml): 1.10
ability of recombinant RTK ligand to confer resistance (SK-MEL-28, PD184352 - 1 uM, ligand 100 ng/ml): 0.98
ability of recombinant RTK ligand to confer resistance (SK-MEL-28, PD184352 - 1 uM, ligand 400 ng/ml): 0.94
ability of recombinant RTK ligand to confer resistance (SK-MEL-28, PD184352 - 1 uM, ligand 1600 ng/ml): 1.07
ability of recombinant RTK ligand to confer resistance (SK-MEL-28, PLX4720 - 2 uM, ligand 6.25 ng/ml): 0.94
ability of recombinant RTK ligand to confer resistance (SK-MEL-28, PLX4720 - 2 uM, ligand 25 ng/ml): 1.12
ability of recombinant RTK ligand to confer resistance (SK-MEL-28, PLX4720 - 2 uM, ligand 100 ng/ml): 0.98
ability of recombinant RTK ligand to confer resistance (SK-MEL-28, PLX4720 - 2 uM, ligand 400 ng/ml): 0.95
ability of recombinant RTK ligand to confer resistance (SK-MEL-28, PLX4720 - 2 uM, ligand 1600 ng/ml): 0.96
